Experiments:
[1] = test system: ovalbumin-expressing E.G7 cells; assay: Ovalbumin tumor treatment study: peptide immunization with or without TLR agonist; type: in vivo, mice; conditions: for anti-tumor effect of peptide immunization with TLR agonist: OVA or FT peptide with TLR agonist versus peptide alone, E.G7 tumors, OT-1 transfer; for LAG-3 expression on CD8+ TIL / PD-1 expression on CD8+ TIL / PD-L1 expression on tumor cells / number of CD8+ tumor-infiltrating lymphocytes: tumors at necropsy; for anti-tumor efficacy of TLR ligand adjuvant alone: with non-specific peptide, no antigen-specific T-cell activation
Protocol: OT-1 T cells were then adoptively transferred and the following day were immunized with SIINFEKL (SEQ ID NO:1, OVA) or FT peptide (SEQ ID NO:2) alone or with TLR1/2 or TLR7 agonist. Other groups were immunized with 100 μg anti-PD-1 antibody delivered the following day. […] This anti-tumor effect was not observed with TLR agonist treatment alone (FIG. 22). […] This was associated with a reduced PD-1 (but not LAG-3) expression on CD8+ TIL (FIG. 17C).
Ovalbumin tumor treatment studies: 10^6 ovalbumin-expressing E.G7 PD-L 1^high cells were injected subcutaneously into 6- to 10-week old female B6 mice. Ten to fifteen days post injection, when tumors were palpable and similarly sized (˜0.2 cm^3), 2×10^6 naïve OT-1 CD8+ T cells were adoptively transferred to each mouse as described above. The following day mice were immunized subcutaneously with 100 μg of an individual peptide (SIINFEKL (SEQ ID NO:1) or variant, LifeTein) in PBS, with or without TLR agonists as described above. In the group receiving PD-1 blocking antibody, 100 μg of antibody (clone G4 (52)) was injected intraperitoneally on the day following vaccination. Tumor volume was measured over time using calipers and calculated in cubic centimeters according to the following formula: (π/6)*(long axis)*(short axis)^2. Tumors obtained at necropsy were digested in media containing 1 mg/mL collagenase and 20 μg/mL DNAse I (Sigma, St. Louis, MO) for 1-2 hours at 37° C. and passed through a 100-μm screen to obtain a single-cell suspension. Tumor cells and tumor-infiltrating lymphocytes (TILs) were stained and analyzed by flow cytometry using the following panel: CD3-FITC (BD 555274), CD4-BUV395 (BD 563790), CD8-BUV805 (BD 564920), LAG-3-BV711 (BD 563179), PD1-PECF594 (BD 562523), PDL1-PECy7 (BD 558017), 41BB-PerCPeF710) (eBioscience 46-1371-82), CD45-BV510 (BD 563891) and Live/Dead Ghost dye 780 (Tonbo, San Diego, CA 13-0865-T100) or corresponding fluorescently labeled IgG controls.

CD8+ OT-1 T cells = conditions: for Eomesodermin (EOMES gene) expression / expression of genes associated with T-cell regulation (including PD-1 and IL-10): 24 to 72 hours, versus peptide alone
Protocol: CD8+ OT-1 T cells were then purified and evaluated for gene expression changes by RNA sequencing (RNA-seq).
RNA preparation and sequencing: Cells were stimulated in vitro as above, and at the times indicated T cells were isolated via immunomagnetic negative selection (StemCell, Vancouver, Canada 19853), RNA was collected as per the manufacturers instruction (Direct-zol RNA MiniPrep Plus w/TRI Reagent, Zymo Research), treated with DNAse (TURBO DNA-free Kit, Invitrogen), and stored at −80° C. until analysis at the UW-Madison Biotechnology Center. Total RNA was verified for purity and integrity via a NanoDrop2000 Spectrophotometer and Agilent 2100 BioAnalyzer, respectively. Samples that met the Illumina sample input guidelines were prepared using the Illumina® TruSeq® Stranded mRNA Sample Preparation kits (Illumina Inc., San Diego, California, USA). For each library preparation, mRNA was purified from 1000 ng total RNA using poly-T oligo-attached magnetic beads. Subsequently, each poly-A enriched sample was fragmented using divalent cations under elevated temperature. The fragmented RNA was synthesized into double-stranded cDNA using SuperScript II Reverse Transcriptase (Invitrogen, Carlsbad, California, USA) and random primers for first strand cDNA synthesis followed by second strand synthesis using DNA Polymerase I and RNAse H for removal of mRNA. Double-stranded cDNA was purified by paramagnetic beads (Agencourt AMPure XP beads, Beckman Coulter). The cDNA products were incubated with Klenow DNA Polymerase and DNA fragments, ligated to Illumina adapters, and purified by paramagnetic beads. Adapter ligated DNA was amplified in a Linker Mediated PCR reaction (LM-PCR) for 11 cycles using Phusion™ DNA Polymerase and Illumina's PE genomic DNA primer set and then purified by paramagnetic beads. Quality and quantity of the finished libraries were assessed using an Agilent DNA1000 chip (Agilent Technologies. Inc., Santa Clara, CA, USA) and Qubit® dsDNA HS Assay Kit (Invitrogen, Carlsbad, California, USA), respectively. Libraries were standardized to 2 μM. Cluster generation was performed using standard Cluster Kit (v3) and the Illumina Cluster Station. Single 100 bp sequencing was performed, using standard SBS chemistry (v4) on an Illumina HiSeq2500 sequencer. Images were analyzed using the standard Illumina Pipeline, version 1.8.2.
RNA sequencing data analysis: Illumina sequencing reads were adapter and quality trimmed using the Skewer trimming program. Quality reads were subsequently aligned to the annotated reference genome using the STAR aligner (43). Quantification of expression for each gene was calculated by RSEM (44), the expected read counts from RSEM were filtered for low/empty values and used for differential gene expression analysis using DESeq2 (45). All remaining genes from the pairwise comparisons were analyzed using Gene Set Enrichment Analysis (GSEA) (46, 47) to identify pathways (based on GO terms (c5.all.v6) from the Molecular Signatures Database (MSigDB (48)) as well as custom gene sets involved in TLR1/2 versus TLR7 ligand activation. GSEA was performed by calculating a ranked vector as log2 fold-change. Analysis was performed using R 3.3.1 (49) and Bioconductor 2.32.0 (50). Venn diagrams were generated using the VennDiagram package.

| Compound | anti-tumor effect of peptide immunization with TLR agonist [1] | LAG-3 expression on CD8+ TIL [1] | PD-1 expression on CD8+ TIL [1] | PD-L1 expression on tumor cells [1] | number of CD8+ tumor-infiltrating lymphocytes [1] | anti-tumor efficacy of TLR ligand adjuvant alone [1] | expression of genes associated with Th1-biased cytotoxic effector function (IFNγ, TNFα, granzymes A-C, perforin, T-Bet) (CD8+ OT-1 T cells) | Eomesodermin (EOMES gene) expression (CD8+ OT-1 T cells) | expression of genes associated with T-cell regulation (including PD-1 and IL-10) (CD8+ OT-1 T cells) |
| --- | --- | --- | --- | --- | --- | --- | --- | --- | --- |
| CCNCc1nc2c(N)nc3ccccc3c2n1CC(C)(C)O [Gardiquimod] | greater anti-tumor effect | not | reduced | reduced | greater number | do not have significant anti-tumor efficacy | induced | reduced | reduced |
| Pam3CSK4 | greater anti-tumor effect | not | reduced | reduced | greater number | do not have significant anti-tumor efficacy | induced | reduced | reduced |
